Measured values as given in ChEMBL document CHEMBL5325495, “Synthesis and anti-cancer potential of potent peripheral MAOA inhibitors designed to limit blood:brain penetration” (Bioorg Med Chem, 2023).
pIC50: −log10 of the molar value.

What was measured:
[1] = target: T1, Amine oxidase [flavin-containing] A (Homo sapiens, UniProt P21397); assay: Inhibition of recombinant human MAO-A expressed in baculovirus infected BTI insect cells
T1 sequence (P21397 whole entry): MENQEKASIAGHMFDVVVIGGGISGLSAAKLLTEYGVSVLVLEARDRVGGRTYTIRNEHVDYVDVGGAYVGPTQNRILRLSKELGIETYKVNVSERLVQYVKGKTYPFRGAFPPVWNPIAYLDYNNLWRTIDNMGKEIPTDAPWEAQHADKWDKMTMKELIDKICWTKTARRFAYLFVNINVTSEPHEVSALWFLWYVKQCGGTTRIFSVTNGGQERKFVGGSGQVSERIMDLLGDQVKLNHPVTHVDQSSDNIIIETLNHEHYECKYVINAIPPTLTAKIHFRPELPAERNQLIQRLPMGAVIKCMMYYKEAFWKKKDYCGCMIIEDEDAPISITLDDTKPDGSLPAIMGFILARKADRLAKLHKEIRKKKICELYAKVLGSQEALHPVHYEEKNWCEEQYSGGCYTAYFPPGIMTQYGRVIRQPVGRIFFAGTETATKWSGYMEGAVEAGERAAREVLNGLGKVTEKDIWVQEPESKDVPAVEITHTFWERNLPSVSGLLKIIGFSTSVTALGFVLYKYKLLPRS

[2] = target: T2, Amine oxidase [flavin-containing] B (Homo sapiens, UniProt P27338); assay: Inhibition of recombinant human MAO-B expressed in baculovirus infected BTI insect cells; assay type: cell-based
T2 sequence (P27338 whole entry): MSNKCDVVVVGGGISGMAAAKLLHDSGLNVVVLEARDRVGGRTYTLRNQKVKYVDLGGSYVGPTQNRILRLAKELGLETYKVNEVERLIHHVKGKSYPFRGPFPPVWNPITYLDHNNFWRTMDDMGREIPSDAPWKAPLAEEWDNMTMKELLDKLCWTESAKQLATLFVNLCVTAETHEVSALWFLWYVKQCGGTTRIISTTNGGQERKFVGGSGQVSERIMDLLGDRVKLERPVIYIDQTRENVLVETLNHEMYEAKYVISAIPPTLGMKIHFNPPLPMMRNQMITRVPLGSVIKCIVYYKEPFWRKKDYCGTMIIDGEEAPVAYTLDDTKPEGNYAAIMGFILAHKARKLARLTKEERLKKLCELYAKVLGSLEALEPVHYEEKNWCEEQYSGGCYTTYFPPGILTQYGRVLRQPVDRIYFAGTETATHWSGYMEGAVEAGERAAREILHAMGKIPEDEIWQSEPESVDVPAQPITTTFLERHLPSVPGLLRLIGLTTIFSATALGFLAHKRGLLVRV

LNCaP = assay: Cytotoxicity against human LNCaP cells incubated for 3 days by Cell-Titer Glo assay; assay type: functional; conditions: 72 h, time 3 day
LNCaP C4-2B = assay: Cytotoxicity against human LNCaP C4-2B cells incubated for 3 days by Cell-Titer Glo assay; assay type: functional; conditions: 72 h, time 3 day

| pIC50 [1] | pIC50 [2] | SMILES | CC50 (LNCaP) | CC50 (LNCaP C4-2B) |
| --- | --- | --- | --- | --- |
| 7.19 | 4.16 | C#CCN(C)CCCOc1cc(NS(C)(=O)=O)c(Cl)cc1Cl | 103 µM | 119 µM |
| 4.59 | < 3.30 | C#CCN(C)CCCOc1cc(NC(=O)c2cc[nH]n2)c(Cl)cc1Cl | 15.8 µM | 32.5 µM |
| 7.61 | 6.04 | C#CCN(C)CCCOc1cc(O)c(Cl)cc1Cl | 35.5 µM | 30.2 µM |
| 6.12 | < 3.30 | C#CCN(CCO)CCCOc1cc(N)c(Cl)cc1Cl | 55.8 µM | 43.9 µM |
| 7.15 | < 3.30 | C#CCN(C)C[C@@H](O)COc1cc(N)c(Cl)cc1Cl | 78.9 µM | 73.7 µM |
| 5.06 | 3.45 | C#CCN(C)CCCOc1cc(NC(C)=O)c(Cl)cc1Cl | 97.3 µM | 97 µM |
| 6.99 | 4.42 | C#CCN(C)CCCOc1cc(C#N)c(Cl)cc1Cl | 65.4 µM | 72.4 µM |
| 6.10 | < 3.30 | C#CCN(CCO)CCCOc1ccc(Cl)cc1Cl | 35.7 µM | 46.5 µM |
| 5.17 | 3.91 | C#CCN(C)CCCOc1cc(C)c(Cl)cc1Cl | 37 µM | 66 µM |
| 5.18 | 4.60 | C#CCN(C)CCCOc1cc(NC=O)c(Cl)cc1Cl | 85.9 µM | 84 µM |
| 7.15 | < 3.30 | C#CCN(C)C[C@H](O)COc1cc(N)c(Cl)cc1Cl | 78.9 µM | 73.7 µM |
| 7.83 | < 3.30 | C#CCN(C)CCCOc1cc(N)c(Cl)cc1Cl | 31.1 µM | 31.6 µM |
|  |  | C#CCN(C)CCCOc1ccc(Cl)cc1Cl [CLORGILINE] | 51.5 µM | 53.5 µM |
|  |  | NNCCc1ccccc1 [PHENELZINE] | 121 µM | 157 µM |
